Results from patent US5030427A, “Gallium purification” (Monsanto Company, priority 1988, dated 1991).

Experiment: Aqueous solubilities of N-alkylalkano and N-H hydroxamic acids (25° C.)
Type: physicochemical
Description: It is desirable that the extractant for metals have low solubility in water in order to avoid loss of extractant in aqueous media. In Table 1, the aqueous solubilities of a number of hydroxamic acids are reported.

| aqueous solubility (in words) (aqueous media) | SOLUBILITY (25° C.) (aqueous, 25° C.) | Structure (SMILES) |
| --- | --- | --- |
| relatively high aqueous solubility |  | CCCCCCCCC(=O)N(C)O [N-methylnonanohydroxamic acid] |
|  | 5.48 × 10^-4 molarity | CCCCCCCCCC(=O)N(C)O [N-methyldecanohydroxamic acid] |
